Counter-ions that a name gives are not always drawn. Like-named read-outs stand apart in the source and are kept apart here.
Assays:
[1] = system: aldosterone (DCA)-like activity; conditions: cited from earlier work
[2] = system: Acetic acid-induced ulcer; experiment: Acetic acid-induced ulcer; assay type: in vivo, male SD-strain rats; conditions: for Percent inhibition / Ulcer index (mean ± standard deviation): once a day for 10 days; for significance of inhibition: rat, in vivo
Description: In the following test examples, male SD-strain rats (body weight 200 to 250 g) were used as experimental animals, and a sodium salt of the compound of formula (I) dissolved in distilled water was used as the compound of this invention. Acetic acid-induced ulcer: Rats, 5 or 10 per group, were used. After they were anesthetized with pentobarbital sodium, the abdomen was incised, and 0.05 ml of 10% acetic acid was injected into the mucous membrane from the serous layer at the boundary portion in the anterior wall between the body of the stomach and the pylorus part. The abdomen was then sutured. Each of the test drugs shown in Table 2 was intraperitoneally or orally administered once a day for 10 consecutive days beginning with the second day after the above operation. On the 15th day after the operation, the stomach was excised and 12 ml of 1% formalin was injected into it. Then, the stomach was dipped in 1% formalin for 10 minutes, and cut open along the greater curvature. The area of an ulcer generated was measured, and the ulcer index was calculated on the basis of the following standard. |0 0 |1-8 1 | 9-24 2 |25-63 3 | 64-120 4 |121-168 5 |>168 6 The tissue respiration activator used was a calf's blood extract preparation administered at a rate of 0.5 ml per 100 g of body weight (this applies to all tissue respiration activators appearing hereinafter).

Stress ulcer = Stress ulcer (water immersion); assay type: in vivo, male SD-strain rats
Description: (§1) In the following test examples, male SD-strain rats (body weight 200 to 250 g) were used as experimental animals, and a sodium salt of the compound of formula (I) dissolved in distilled water was used as the compound of this invention.
(§2) The tissue respiration activator used was a calf's blood extract preparation administered at a rate of 0.5 ml per 100 g of body weight (this applies to all tissue respiration activators appearing hereinafter).
Rats, 5 per group, were used. They were put in wire gauze stress cages (made by Natsume Seisakusho) in an upstanding position. The cages were put in a water bath kept constantly at 23° C., and the rats were immersed to a level of the sternal projection. Each of the drugs shown in Table 3 was administered to the rats intraperitoneally or orally 15 minutes before water immersion. Seven hours after the administration, the rats were knocked out to death. The stomach was excised, and the length of a stress ulcer (erosion) was measured.

[3] = system: Indomethacin-induced ulcer; experiment: Indomethacin-induced ulcer; assay type: in vivo, male SD-strain rats
Description: as §1, §2
Indomethacin-induced ulcer:
Rats, 5 per group, were used. They were caused to fast for 24 hours while giving them only water. Then, indomethacin was subcutaneously injected to the rats in a dose of 30 mg/kg. Eight hours later, the rats were killed, and the stomach was excised and treated in the same way as in Test Example 3. The length of the erosion generated was measured. Each of the test drugs shown in Table 4 was administered to the rats intraperitoneally or orally 10 minutes before the administration of iodomethacin.

[4] = system: Shay's ulcer (ulcer induced by ligation of the pylorus); experiment: Pylorus ligating method (Shay's ulcer); assay type: in vivo, male SD-strain rats; design: Ulcer index (mean ± standard deviation): scale not given here; conditions: for minimal effective dose: Rattus norvegicus, read-out: positively effective dose
Description: as §1
Pylorus ligating method (Shay's ulcer):
Rats, 10 per group, were used, and allowed to fast for 48 hours in separate cages while giving them only water. Pentobarbital sodium was injected intraperitoneally to the rats in a dose of 5 mg per rat. Under anesthesia, the abdomen of each rat was incised, and the portion leading from the pylorus to the duodenum was ligated. Then, the abdomen was sutered. The rats were then left for 19 hours without giving them food and water. Then, under ether anesthesia, the rats were killed by removing the spinal cord. The stomach was excised, and the amount of the gastric juice was measured. The stomach was then cut open along its greater curvature, and placed on a cork plate. The area of an ulcer generated at the anterior stomach was measured by means of an Olympus stereoscope (magnification 10×), and the ulcer index was calculated on the basis of the following criteria.
The test compound of the invention was injected immediately after the ligation, or orally administered 30 minutes before the ligation. To a control group, physiological saline was given at a rate of 1 ml per 100 g of body weight.

[5] = system: Delayed-type cellular immunity; experiment: Delayed-type cellular immunity activating action (sheep red blood cells, foot pad thickness); assay type: in vivo, mice; conditions: day 8
Description: Mice, 10 per group, were used. Sheep red blood cells (1.0×10^7) were subcutaneously inoculated in the right foot pad of each mouse. The day of inoculation was taken as day 0, and on the same day, the sodium salt of the compound of formula (I) was administered to the mice intraperitoneally or orally. On day 7, sheep red blood cells (1.0×10^7) were subcutaneously inoculated in the left foot pad of each mouse, and on day 8, the thickness of each foot pad was measured.

[6] = Toxicity (LD50, method of Reed and Muench); conditions: rat, in vivo, rats observed for 7 days
Description: The LD50 value was calculated by the method of Reed and Muench.

[7] = oral, 300 mg/kg, P < 0.01 (cetraxate), P < 0.001 (compound of the invention)
[8] = oral, 50 mg/kg, P < 0.05 (cetraxate), P < 0.0001 (compound of the invention)
[9] = oral, 300 mg/kg, P < 0.05 (cetraxate), P < 0.001 (compound of the invention)

CC1(C)[C@@H](O)CC[C@]2(C)[C@H]3CC=C4[C@@H]5C[C@@](C)(C(=O)O)CC[C@]5(C)CC[C@@]4(C)[C@]3(C)CC[C@@H]12 [11-deoxoglycyrrhetinic acid]
DCA activity ([1]; Baran et al., J. Med. Chem. 1974): does not substantially show the DCA activity

CC1(C)[C@@H](OC(=O)CCC(=O)O)CC[C@]2(C)[C@H]3C(=O)C=C4[C@@H]5C[C@@](C)(C(=O)O)CC[C@]5(C)CC[C@@]4(C)[C@]3(C)CC[C@@H]12 [Carbenoxolone sodium, glycyrrhetinic acid hydrogen succinate sodium salt, reference compound]
Percent inhibition ([2]; oral, 300 mg/kg): 12.6%

NC[C@H]1CC[C@H](C(=O)Oc2ccc(CCC(=O)O)cc2)CC1 [Cetraxate hydrochloride, cetraxate hydrochloride, reference compound]
Length of the erosion (mean ± standard deviation) (Stress ulcer; intraperitoneal, 200 mg/kg): 56.08 ± 12.89 mm
Percent inhibition (Stress ulcer; intraperitoneal, 200 mg/kg): 13.5%
Percent inhibition (Stress ulcer; oral, 300 mg/kg): 36.6%
Length of the erosion (mean ± standard deviation) (Stress ulcer; [7]): 48.6 ± 3.90 mm
Percent inhibition ([2]; intraperitoneal, 20 mg/kg): 49.5%
Ulcer index (mean ± standard deviation) ([2]; intraperitoneal, 20 mg/kg): 1.60 ± 0.245
Ulcer index (mean ± standard deviation) ([2]; oral, 50 mg/kg): 1.90 ± 0.568
Percent inhibition [2, 8]: 29.6%
significance of inhibition [2]: significant inhibitions at P<0.001
Length of the erosion (mean ± standard deviation) ([3]; intraperitoneal, 200 mg/kg): 38.94 ± 8.22 mm
Percent inhibition ([3]; intraperitoneal, 200 mg/kg): 44.3%
Length of the erosion (mean ± standard deviation) ([3]; oral, 300 mg/kg): 31.58 ± 7.59 mm
Percent inhibition [3, 9]: 43.7%

CC1(C)[C@@H](OC(=O)/C=C\C(=O)O)CC[C@]2(C)[C@H]3CC=C4[C@@H]5C[C@@](C)(C(=O)O)CC[C@]5(C)CC[C@@]4(C)[C@]3(C)CC[C@@H]12 [Compound of the invention, sodium salt of 11-deoxoglycyrrhetinic acid hydrogen maleate]
Length of the erosion (mean ± standard deviation) (Stress ulcer; intraperitoneal, 20 mg/kg): 19.25 ± 0.95 mm
Percent inhibition (Stress ulcer; intraperitoneal, 20 mg/kg): 70.3%
Percent inhibition (Stress ulcer; oral, 100 mg/kg): 87.5%
Length of the erosion (mean ± standard deviation) (Stress ulcer; oral, 100 mg/kg, P < 0.001): 9.6 ± 4.80 mm
Percent inhibition (Stress ulcer; oral, 300 mg/kg): 100.0%
Length of the erosion (mean ± standard deviation) (Stress ulcer; [7]): 0.0 ± 0.00 mm
Percent inhibition (Stress ulcer; oral, 500 mg/kg): 100.0%
Length of the erosion (mean ± standard deviation) (Stress ulcer; oral, 500 mg/kg, P < 0.001): 0.0 ± 0.00 mm
Percent inhibition ([2]; intraperitoneal, 2 mg/kg): 54.8%
Ulcer index (mean ± standard deviation) ([2]; intraperitoneal, 2 mg/kg, P < 0.001): 1.40 ± 0.247
Ulcer index (mean ± standard deviation) ([2]; oral, 10 mg/kg): 1.60 ± 0.699
Percent inhibition ([2]; oral, 10 mg/kg, P < 0.001): 40.7%
Ulcer index (mean ± standard deviation) ([2]; oral, 30 mg/kg): 1.40 ± 0.699
Percent inhibition ([2]; oral, 30 mg/kg, P < 0.001): 48.1%
Ulcer index (mean ± standard deviation) ([2]; oral, 50 mg/kg): 1.00 ± 0.817
Percent inhibition [2, 8]: 63.0%
significance of inhibition [2]: significant inhibitions at P<0.001
rank of percent inhibition ([2]; versus cetraxate hydrochloride and tissue respiration activator): highest
Length of the erosion (mean ± standard deviation) ([3]; intraperitoneal, 20 mg/kg): 17.69 ± 8.08 mm
Percent inhibition ([3]; intraperitoneal, 20 mg/kg): 74.7%
Length of the erosion (mean ± standard deviation) ([3]; oral, 100 mg/kg): 9.37 ± 3.22 mm
Percent inhibition ([3]; oral, 100 mg/kg, P < 0.001): 83.3%
Length of the erosion (mean ± standard deviation) ([3]; oral, 300 mg/kg): 7.22 ± 3.06 mm
Percent inhibition [3, 9]: 87.1%
Length of the erosion (mean ± standard deviation) ([3]; oral, 500 mg/kg): 5.63 ± 3.92 mm
Percent inhibition ([3]; oral, 500 mg/kg, P < 0.001): 90.0%
minimal effective dose ([4]; ip, intraperitoneal): ~10 mg/kg
minimal effective dose ([4]; oral): ~300 mg/kg
Percent inhibition ([4]; intraperitoneal, 5 mg/kg): 17.1%
Ulcer index (mean ± standard deviation) ([4]; intraperitoneal, 5 mg/kg): 3.4 ± 0.84
Percent inhibition ([4]; intraperitoneal, 10 mg/kg): 65.9%
Ulcer index (mean ± standard deviation) ([4]; intraperitoneal, 10 mg/kg, P < 0.01): 1.4 ± 0.51
Percent inhibition ([4]; intraperitoneal, 20 mg/kg): 70.7%
Ulcer index (mean ± standard deviation) ([4]; intraperitoneal, 20 mg/kg, P < 0.01): 1.2 ± 0.20
Percent inhibition ([4]; intraperitoneal, 50 mg/kg): 92.7%
Ulcer index (mean ± standard deviation) ([4]; intraperitoneal, 50 mg/kg, P < 0.001): 0.3 ± 0.21
Percent inhibition ([4]; intravenous, 40 mg/kg): 90.4%
Ulcer index (mean ± standard deviation) ([4]; intravenous, 40 mg/kg, P < 0.001): 0.4 ± 0.19
Percent inhibition ([4]; oral, 100 mg/kg): 36.0%
Ulcer index (mean ± standard deviation) ([4]; oral, 100 mg/kg): 3.2 ± 0.97
Percent inhibition ([4]; oral, 300 mg/kg): 80.0%
Ulcer index (mean ± standard deviation) ([4]; oral, 300 mg/kg, P < 0.01): 1.0 ± 1.01
Percent inhibition ([4]; oral, 500 mg/kg): 84.0%
Ulcer index (mean ± standard deviation) ([4]; oral, 500 mg/kg, P < 0.001): 0.8 ± 0.49
effect against ulcer induced by ligation of the pylorus ([4]; rat, in vivo): effective against ulcer induced by ligation of the pylorus
Percent inhibition ([4]; subcutaneous, 70 mg/kg): 84.6%
Ulcer index (mean ± standard deviation) ([4]; subcutaneous, 70 mg/kg, P < 0.001): 0.8 ± 0.90
Ratio to the control group ([5]; 5 mm/kg (so in the source), intraperitoneal): 1.18
Ratio to the control group ([5]; 15 mm/kg (so in the source), intraperitoneal): 1.49
Ratio to the control group ([5]; 100 mm/kg (so in the source), oral): 1.40
LD50 at 168 h ([6]; ip, intraperitoneal): 67.8 mg/kg
LD50 at 168 h ([6]; sc, subcutaneous): 98.3 mg/kg
LD50 at 168 h ([6]; intravenous): 54.2 mg/kg
LD50 at 168 h ([6]; oral): > 6000 mg/kg

CC1(C)[C@@H](O)CC[C@]2(C)[C@H]3C(=O)C=C4[C@@H]5C[C@@](C)(C(=O)O)CC[C@]5(C)CC[C@@]4(C)[C@]3(C)CC[C@@H]12 [glycyrrhetinic acid]
aldosterone (DCA)-like activity, sodium retention and potassium excretion [1]: have an aldosterone (DCA)-like activity and promote sodium retention and potassium excretion
